# Experimental data: patent publication US5215916A, “Super glucocorticoid receptors: receptors with increased affinity and specificity for glucocorticoid steriods” (priority 1991, dated 1993)
# Target: T1, Wild type glucocorticoid receptor (Rattus norvegicus, UniProt P06536)
# T1 construct: Thus the full length receptor was removed from the VARO vector with BamHI and inserted into the SVL vector; expressed in transfected cells; host or cells: COS-7 (cytosol)
# T1 sequence (P06536 1-795): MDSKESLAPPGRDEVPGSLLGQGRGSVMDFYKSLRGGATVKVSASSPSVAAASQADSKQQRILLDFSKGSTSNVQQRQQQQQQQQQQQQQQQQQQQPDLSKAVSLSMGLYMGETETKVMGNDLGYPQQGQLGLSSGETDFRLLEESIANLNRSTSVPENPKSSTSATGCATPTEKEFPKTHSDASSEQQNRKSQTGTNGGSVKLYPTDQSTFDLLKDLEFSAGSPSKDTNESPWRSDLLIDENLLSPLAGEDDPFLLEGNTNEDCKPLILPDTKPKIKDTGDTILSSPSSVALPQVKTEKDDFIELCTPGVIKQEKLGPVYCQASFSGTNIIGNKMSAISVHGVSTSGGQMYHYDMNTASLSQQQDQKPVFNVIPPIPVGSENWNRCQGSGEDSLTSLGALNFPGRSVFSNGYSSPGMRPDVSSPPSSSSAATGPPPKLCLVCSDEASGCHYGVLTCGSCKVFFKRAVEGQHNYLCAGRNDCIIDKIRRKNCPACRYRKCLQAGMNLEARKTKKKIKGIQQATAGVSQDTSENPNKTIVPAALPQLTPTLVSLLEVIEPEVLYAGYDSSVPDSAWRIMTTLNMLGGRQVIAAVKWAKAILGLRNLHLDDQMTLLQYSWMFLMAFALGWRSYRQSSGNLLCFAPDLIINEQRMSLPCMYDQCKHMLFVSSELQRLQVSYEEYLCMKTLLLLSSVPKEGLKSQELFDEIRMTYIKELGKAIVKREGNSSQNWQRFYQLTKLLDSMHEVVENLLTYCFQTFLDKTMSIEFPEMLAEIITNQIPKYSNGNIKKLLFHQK
# Experiment: Competition binding assay with [3H]Dex, COS-7 cytosol, wild type receptor
# Description: Monolayer cultures of COS-7 cells were grown in DMEM (Gibco) supplemented with 5% fetal bovine serum (FBS) (Biofluids) at 37° C. in a 5% CO2 incubator. Standard calcium phosphate transfection methods were used to introduce the wild type and mutant receptor expression vectors (pSVL) into COS-7 cells (100 mm plates [Costar] at a cell density of about 10^6 /plate were each treated with 10 μg of plasmid DNA). After ~16 hrs of incubation at 37° C. in a 5% CO2 incubator, the excess calcium phosphate and precipitate were removed by washing with phosphate buffered saline (PBS). […]
# COS-7 cell cytosol containing the steroid-free receptors was prepared by cell lysis at -80° C. and centrifugation at 15,000 ×g and labeled as described for HTC cells (S. S. Simons and P. A. Miller, Biochem 23:6876-6882 (1984)). […] The specifically bound [^3 H]Dex was determined by first adding a 10% dextran-coated charcoal solution (added volume =20% of reaction solution volume) to remove free steroid and then subtracting the nonspecific binding seen in the presence of excess nonradioactive Dex. […]
# The specificity of steroid binding was determined by Rodbard correction (Rodbard, 1973) of the data from a competition binding assay (S. S. Simons et al., Biochem. Biophys. Res. Comm. 86:793-800 (1979); Miller and Simons, 1988). […]
row,Compound,Relative Ka of Steroid Binding to Receptor
1,CC#C[C@]1(O)CC[C@H]2[C@@H]3CCC4=CC(=O)CCC4=C3[C@@H](c3ccc(N(C)C)cc3)C[C@@]21C [RU486],3.4 ± 1.2
2,"C[C@]12CC[C@@H]3c4ccc(O)cc4CC[C@H]3[C@@H]1CC[C@@H]2O [17β-Estradiol, 17β-estradiol]",0.029 ± 0.006
